Measurements from patent publication US6194399A, “Aryldiamine derivatives useful as antibacterial agents” (Scriptgen Pharmaceuticals, Inc., priority 1999, dated 2001).
Converted amounts (≈) assume the structure as drawn. Like-named read-outs stand apart in the source and are kept apart here.

How the values were obtained:
[1] = test system: wild-type S. aureus; assay: MIC, broth microdilution assay; format: cell-based; conditions: Staphylococcus aureus
Method: (§1) The antimicrobial activity of a compound or formulation according to the invention is determined by exposing a culture comprising a bacterial species to different concentrations of the compound or formulation and monitoring the effects on growth relative to a control culture not exposed to the compound. Any method known in the art may be used to assess bacterial growth. Antimicrobial effects are expressed as Minimal Inhibitory Concentration (MIC) and Minimum Bactericidal Concentration (MBC).
(§2) The MIC may be expressed as a range between the concentration at which no growth is observed and the concentration of the dilution which immediately follows.
(§3) Typically, MIC is measured using a broth microdilution assay as follows. Dilution of candidate antimicrobial compounds in culture medium is performed in a sterile, covered 96-well microtiter plate with flat bottom wells (Costar #9017). The final concentrations of the compounds are typically 100, 50, 25, 12.5, 6.25, 3.12, 1.56, 0.78, 0.39, 0.20, 0.10, and 0.05 μg/mL, respectively. Culture medium only (containing no bacteria) is also included as a negative control for each plate. Ampicillin and rifampin are used as positive controls against all bacterial strains in every experiment.
(§4) The overnight culture of a single colony is diluted in sterile medium so that, after inoculation, each well contains approximately 5×10^5CFU/mL. Within 15 minutes of preparation, […] of the adjusted inoculum suspension is added to the microliter plate. Each well is diluted with an equal volume of the antimicrobial compounds or control solution. The inoculated microtiter plate is typically incubated at 35° C. for 16-20 hours. The turbidity of each well is determined by measuring the absorbance at 595 nm using a BioRad Model 3550-UV microplate reader.
(§5) The antimicrobial activities of the compounds of the invention, expressed as MIC and MBC, were determined as described above, using as tester strains wild-type S. aureus, rifampicin-resistant S. aureus, wild-type E. coli, and E. coli cells that had been permeabilized.

[2] = test system: wild-type E. coli; assay: MIC, broth microdilution assay; format: cell-based; conditions: Escherichia coli
Method: as §1, §2, §3, §4, §5

[3] = test system: rifampicin-resistant S. aureus; assay: MIC, broth microdilution assay; format: cell-based; conditions: Staphylococcus aureus, read-out: MIC rif^R -S. aureus
Method: as §1, §2, §3, §4, §5

[4] = target: human pol II (Homo sapiens, UniProt P24928+P30876); assay: in vitro transcription reaction, RNA polymerase inhibition; format: biochemical
Method: RNA polymerase inhibition activity of a compound can be detected by including the compound in an in vitro transcription reaction and comparing the level of transcription that occurs in the presence and absence of the compound. The RNA polymerase may be from a bacterial source or, as a control, from an animal source. […] UTP; 400 μM each of ATP, GTP, and CTP; and RNA polymerase. After incubation for 60 minutes at 25° C., the reaction is terminated with 100 μl 10% TCA, which also precipitates the newly transcribed RNA, and incorporation of radioactivity into RNA is quantified.
In vitro and/or in vivo criteria may used to determine specificity. That is, the inhibitory activity of a particular compound towards an animal RNA polymerase may be measured in parallel with a bacterial RNA polymerase.
(§6) The compounds of the invention were included at a range of concentrations in in vitro transcription reactions containing purified RNA polymerase derived from either S. aureus, E. coli, or human, and template DNA comprising a pTaq promoter. The reaction conditions and analytical method are described above.

[5] = target: purified RNA polymerase derived from S. aureus; assay: as above; format: biochemical
Sequence of purified RNA polymerase derived from S. aureus (P0A0J0 whole entry): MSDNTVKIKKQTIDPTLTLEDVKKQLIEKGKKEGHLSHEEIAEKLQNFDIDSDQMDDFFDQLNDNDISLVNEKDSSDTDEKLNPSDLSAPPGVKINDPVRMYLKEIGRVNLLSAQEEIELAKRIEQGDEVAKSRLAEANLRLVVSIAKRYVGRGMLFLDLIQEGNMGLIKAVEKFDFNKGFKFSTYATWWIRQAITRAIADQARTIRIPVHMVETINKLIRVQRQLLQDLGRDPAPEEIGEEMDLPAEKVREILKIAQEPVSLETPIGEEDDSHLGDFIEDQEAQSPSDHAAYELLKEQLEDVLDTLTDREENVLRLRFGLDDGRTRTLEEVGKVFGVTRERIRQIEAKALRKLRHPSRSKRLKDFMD
Sequence of purified RNA polymerase derived from S. aureus (P0A8T7 whole entry, further chain): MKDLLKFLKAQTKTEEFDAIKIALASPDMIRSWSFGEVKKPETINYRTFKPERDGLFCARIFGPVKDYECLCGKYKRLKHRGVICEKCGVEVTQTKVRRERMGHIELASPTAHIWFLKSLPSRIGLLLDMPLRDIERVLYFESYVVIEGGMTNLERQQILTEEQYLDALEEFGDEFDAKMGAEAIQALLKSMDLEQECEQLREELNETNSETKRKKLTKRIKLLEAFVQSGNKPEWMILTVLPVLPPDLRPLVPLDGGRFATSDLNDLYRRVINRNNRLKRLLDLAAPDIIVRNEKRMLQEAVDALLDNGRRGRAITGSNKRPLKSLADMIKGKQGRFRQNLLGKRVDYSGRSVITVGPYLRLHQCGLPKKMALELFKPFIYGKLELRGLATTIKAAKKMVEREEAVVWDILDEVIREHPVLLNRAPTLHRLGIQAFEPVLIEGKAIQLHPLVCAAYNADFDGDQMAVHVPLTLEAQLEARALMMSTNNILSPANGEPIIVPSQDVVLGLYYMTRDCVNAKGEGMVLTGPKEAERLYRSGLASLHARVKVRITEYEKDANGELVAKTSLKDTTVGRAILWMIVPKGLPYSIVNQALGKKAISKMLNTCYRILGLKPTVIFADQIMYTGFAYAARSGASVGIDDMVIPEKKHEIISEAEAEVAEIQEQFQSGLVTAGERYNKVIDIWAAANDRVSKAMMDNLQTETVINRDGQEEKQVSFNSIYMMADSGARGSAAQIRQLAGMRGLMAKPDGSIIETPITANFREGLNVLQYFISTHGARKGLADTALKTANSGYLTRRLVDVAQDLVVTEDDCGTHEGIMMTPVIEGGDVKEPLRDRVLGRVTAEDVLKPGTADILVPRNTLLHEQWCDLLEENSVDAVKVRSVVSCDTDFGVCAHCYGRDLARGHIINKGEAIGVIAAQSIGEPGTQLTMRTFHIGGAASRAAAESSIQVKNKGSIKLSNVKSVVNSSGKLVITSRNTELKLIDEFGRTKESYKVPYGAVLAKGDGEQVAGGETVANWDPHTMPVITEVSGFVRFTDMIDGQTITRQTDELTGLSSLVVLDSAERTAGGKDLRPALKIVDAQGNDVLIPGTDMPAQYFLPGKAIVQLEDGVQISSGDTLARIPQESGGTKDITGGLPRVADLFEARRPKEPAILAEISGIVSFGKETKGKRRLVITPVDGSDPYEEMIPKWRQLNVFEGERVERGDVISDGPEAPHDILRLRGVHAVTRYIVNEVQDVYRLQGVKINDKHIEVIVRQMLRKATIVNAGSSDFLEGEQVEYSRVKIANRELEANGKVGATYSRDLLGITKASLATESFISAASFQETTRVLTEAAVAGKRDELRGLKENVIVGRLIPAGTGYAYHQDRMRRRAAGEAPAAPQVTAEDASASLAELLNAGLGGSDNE
Sequence of purified RNA polymerase derived from S. aureus (P0A7Z4 whole entry, further chain): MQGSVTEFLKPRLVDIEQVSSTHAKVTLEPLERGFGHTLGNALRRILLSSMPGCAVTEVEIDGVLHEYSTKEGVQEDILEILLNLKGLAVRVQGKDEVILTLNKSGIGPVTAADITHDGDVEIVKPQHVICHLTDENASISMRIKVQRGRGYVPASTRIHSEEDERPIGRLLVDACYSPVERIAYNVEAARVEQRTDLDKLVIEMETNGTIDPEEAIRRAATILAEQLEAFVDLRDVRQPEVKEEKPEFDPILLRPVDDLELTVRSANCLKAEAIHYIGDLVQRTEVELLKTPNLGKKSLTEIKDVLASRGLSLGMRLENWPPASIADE
Sequence of purified RNA polymerase derived from S. aureus (P0A8V2 whole entry, further chain): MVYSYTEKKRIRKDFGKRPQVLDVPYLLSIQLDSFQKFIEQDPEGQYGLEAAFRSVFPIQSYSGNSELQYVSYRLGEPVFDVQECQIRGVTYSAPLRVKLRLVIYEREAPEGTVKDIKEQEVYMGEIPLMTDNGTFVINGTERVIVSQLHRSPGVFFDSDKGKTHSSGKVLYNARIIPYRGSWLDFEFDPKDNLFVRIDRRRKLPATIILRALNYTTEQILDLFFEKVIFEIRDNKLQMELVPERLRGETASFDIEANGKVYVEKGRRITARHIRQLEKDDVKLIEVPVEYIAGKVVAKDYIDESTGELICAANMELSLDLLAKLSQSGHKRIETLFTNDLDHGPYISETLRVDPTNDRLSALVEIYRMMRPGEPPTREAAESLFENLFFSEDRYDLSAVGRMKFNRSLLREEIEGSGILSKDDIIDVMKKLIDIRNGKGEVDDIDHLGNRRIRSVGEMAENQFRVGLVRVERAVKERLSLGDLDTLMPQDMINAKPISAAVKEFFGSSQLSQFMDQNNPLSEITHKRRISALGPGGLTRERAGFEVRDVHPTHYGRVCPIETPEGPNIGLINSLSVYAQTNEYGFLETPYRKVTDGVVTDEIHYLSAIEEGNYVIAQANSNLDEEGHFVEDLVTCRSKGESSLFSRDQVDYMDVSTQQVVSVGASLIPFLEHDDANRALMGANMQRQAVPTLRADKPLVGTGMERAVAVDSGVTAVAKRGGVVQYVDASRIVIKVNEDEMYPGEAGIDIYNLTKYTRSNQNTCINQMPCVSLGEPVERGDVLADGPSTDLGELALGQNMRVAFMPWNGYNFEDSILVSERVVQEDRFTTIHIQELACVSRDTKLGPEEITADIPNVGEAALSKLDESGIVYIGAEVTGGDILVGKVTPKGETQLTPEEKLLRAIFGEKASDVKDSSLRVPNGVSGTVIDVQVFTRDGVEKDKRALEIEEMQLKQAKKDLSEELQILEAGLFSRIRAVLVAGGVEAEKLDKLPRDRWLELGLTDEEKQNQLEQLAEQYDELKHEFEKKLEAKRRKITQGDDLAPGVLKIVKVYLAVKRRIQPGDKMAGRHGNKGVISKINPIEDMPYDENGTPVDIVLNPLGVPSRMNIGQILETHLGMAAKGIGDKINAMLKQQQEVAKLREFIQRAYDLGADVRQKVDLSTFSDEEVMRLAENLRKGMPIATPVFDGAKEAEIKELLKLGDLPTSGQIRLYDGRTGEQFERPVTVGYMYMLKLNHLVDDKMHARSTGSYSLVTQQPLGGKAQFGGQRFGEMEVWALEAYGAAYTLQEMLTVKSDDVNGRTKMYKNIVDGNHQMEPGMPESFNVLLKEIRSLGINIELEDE
Method: (§7) RNA polymerase inhibition activity of a compound can be detected by including the compound in an in vitro transcription reaction and comparing the level of transcription that occurs in the presence and absence of the compound. The RNA polymerase may be from a bacterial source or, as a control, from an animal source. A typical transcription reaction (50μl) contains transcription buffer (50 mM Tris-HCl, pH 8.0, 200 mM KCl, 10 mM MgCl2,10 mM DTT and 1.5 μM BSA); 1 μg of DNA template; 4 μM UTP containing 5 μCi of [α-^2-32 P] UTP; 400 μM each of ATP, GTP, and CTP; and RNA polymerase. After incubation for 60 minutes at 25° C., the reaction is terminated with 100 μl 10% TCA, which also precipitates the newly transcribed RNA, and incorporation of radioactivity into RNA is quantified. The IC50 (expressed in μg/ml) is the concentration of a compound that inhibits RNA polymerase activity by 50%.
as §6

[6] = target: purified RNA polymerase derived from E. coli (Escherichia coli, UniProt P0A7Z4+P0A8T7+P0A8V2); assay: as above; format: biochemical
Method: as §7, §6

[7] = test system: wild-type S. aureus; assay: MBC determination; format: cell-based; conditions: Staphylococcus aureus
Method: as §1
(§8) The minimum bactericidal concentration (MBC) is defined as the concentration of antimicrobial agent from which no colonies grow on petri plates or in the medium. […] Typically, the wells from a MIC microliter plate are made using a 96-well inoculation grid into a fresh microliter plate containing 100 μL Mueller-Hinton broth per well. The MBC plates are incubated at 37° C. for 16-20 hrs and the MBC values are determined.
as §5

[8] = test system: wild-type E. coli; assay: MBC determination; format: cell-based; conditions: Escherichia coli
Method: as §1, §8, §5

[9] = test system: E. coli cells that had been permeabilized; assay: MBC determination; format: cell-based; conditions: Escherichia coli
Method: as §1, §8, §5

[10] = test system: E. coli cells that had been permeabilized; assay: MIC, broth microdilution assay; format: cell-based; conditions: Escherichia coli, read-out: MIC E. coli*
Method: Within 15 minutes of preparation, […] of the adjusted inoculum suspension is added to the microliter plate.

| Compound | MIC [1] [µg/mL] | MIC [2] [µg/mL] | MIC [3] [µg/mL] | selectivity for bacterial RNA polymerase relative to human RNA polymerase ([4]; bacterial (S. aureus, E. coli) versus human RNA polymerase) | IC50 ([4]; pTaq promoter template DNA, 60 minutes at 25° C., read-out: IC50 human pol II (converted)) [µM] | IC50 ([5]; pTaq promoter template DNA, 60 minutes at 25° C., read-out: IC50 S. aureus RNA polymerase (converted)) [µM] | IC50 ([6]; pTaq promoter template DNA, 60 minutes at 25° C., read-out: IC50 E. coli RNA polymerase (converted)) [µM] | MBC [7] [µg/mL] | MBC [8] [µg/mL] | MBC [9] [µg/mL] | IC50 [4] [µM] | MIC [10] [µg/mL] | IC50 [5] [µM] | IC50 [6] [µM] |
| --- | --- | --- | --- | --- | --- | --- | --- | --- | --- | --- | --- | --- | --- | --- |
| CC1(C)S[C@@H]2[C@H](NC(=O)[C@H](N)c3ccccc3)C(=O)N2[C@H]1C(=O)O [Amp, Ampicillin, reference compound] | 8 (≈ 22.9 µM) | 2 (≈ 5.72 µM) | 4 (≈ 11.4 µM) |  |  |  |  |  |  |  |  |  |  |  |
| NCCNc1ccc([N+](=O)[O-])c(NCCOc2ccccc2)c1 [Compound (A), N^1-(2-aminoethyl)-4-nitro-N^3-(2-phenoxyethyl)-1,3-benzenediamine] | 6 (≈ 19 µM) | 13 (≈ 41.1 µM) | 13 (≈ 41.1 µM) | highest degree of selectivity | 316 | 12.6 | 25.3 | 25 (≈ 79 µM) | 50 (≈ 158 µM) | 25 (≈ 79 µM) |  |  |  |  |
| NCCNc1ccc([N+](=O)[O-])c(N2CCN(c3ccc([N+](=O)[O-])cc3)CC2)c1 [Compound (B)] | 1 (≈ 2.59 µM) | 8 (≈ 20.7 µM) | 2 (≈ 5.18 µM) |  |  |  |  | 8 (≈ 20.7 µM) | 32 (≈ 82.8 µM) | 2 (≈ 5.18 µM) | 104 | 4 (≈ 10.4 µM) | 10.4 | 23.3 |
| CO[C@H]1/C=C/O[C@@]2(C)Oc3c(C)c(O)c4c(O)c(c(/C=N/N5CCN(C)CC5)c(O)c4c3C2=O)NC(=O)/C(C)=C\C=C\[C@H](C)[C@H](O)[C@@H](C)[C@@H](O)[C@@H](C)[C@H](OC(C)=O)[C@@H]1C [Rif, rifampin, reference compound] | < 0.03 | 4 (≈ 4.86 µM) | > 64 |  |  |  |  |  |  |  |  | < 0.03 |  |  |
